PMC5940834, “Discovery and functional characterisation of a luqin-type neuropeptide signalling system in a deuterostome” (Scientific Reports, 2018)
“Also recorded” adds a separate entry of the source. Where no end group is shown, it is not given here.

Experiments:
[1] = test system: receptor for the luqin-type peptide WRPGRFamide; details: cited from earlier work
Source text: (§1) Neuropeptides play a central role in the control of diverse physiological processes and behaviours in animals. Furthermore, neuropeptides are evolutionarily ancient mediators of neuronal signalling and a large number of different neuropeptide signalling pathways were already present in the common ancestor of protostomes and deuterostomes[1]–[3]. The discovery of neuropeptide signalling systems has been enabled by a variety of experimental strategies. The luqin-type neuropeptide system that is the focus of this study was first discovered using a molecular biological approach where the object ...

ArLQR1 = test: ArLQ/neuropeptide activation of ArLQR1, bioluminescence in CHO-ArLQR1 cells; type: cell-based, Asterias rubens; details: ArLQ 1 × 10^−4 to 1 × 10^−14 M, other neuropeptides 1 × 10^−4 to 1 × 10^−13 M
Source text: (§2) To enable pharmacological characterisation of ArLQR1 and ArLQR2, cDNAs encoding these receptors were amplified by PCR, using A. rubens radial nerve cord total cDNA, specific primers (see supplementary Table 1 for a list of the primers) and Q5 polymerase (NEB; Cat. No. M0491S). First, the receptor cDNAs were ligated into the phagemid vector pBluescript II SK + (Agilent Technologies; Cat. No. 212205) using a blunt-end ligation method. The vector was cut with the restriction enzyme EcoRV (NEB; Cat. No. R0195S) and the ligation was performed using T4 DNA ligase (NEB; Cat. No. M0202S). Successful ligation was confirmed by PCR, restriction enzyme digestion and sequencing (TubeSeq service; Eurofins Genomics). The receptor cDNAs were then sub-cloned into the eukaryotic expression vector pcDNA 3.1( + ) (Invitrogen; Cat. No. V790-20). To accomplish this, forward primers included the partial Kozak consensus sequence (ACC) and a sequence corresponding to the first 21 bases of the ArLQR1 or ArLQR2 ORFs, including the start codon. Reverse primers consisted of a stop codon and a sequence reverse complementary to the ORF encoding the C-terminal region of ArLQR1 or ArLQR2 (see supplementary Table 1 for a list of the primers). PCR was performed using Q5 polymerase NEB and the cDNA products were ligated into the pcDNA 3.1(+) vector that had been cut previously with the restriction enzyme EcoRV by performing blunt-end ligation with T4 DNA ligase NEB. The direction of the insert was determined by restriction enzyme digestion and sequencing. The ArLQR1 and ArLQR2 sequences have been deposited in the GenBank database under accession numbers MG744509 and MG744510 respectively.
(§3) To determine if ArLQ acts as a ligand for ArLQR1 and/or ArLQR2, the receptors were expressed in Chinese hamster ovary cells (CHO-K1) stably expressing the calcium-sensitive bioluminescent reporter GFP-aequorin fusion protein (G5A)[43]. CHO-K1 cells were maintained at 37 °C in T25 culture flasks (USA Scientific; Cat. No. CC7682-4325) containing 6 ml of DMEM/F12 Nutrient Mixture medium (Thermo Fisher Scientific; Cat. No. 11039047) supplemented with 10% fetal bovine serum (Thermo Fisher Scientific; Cat. No. 10082147), Antibiotic-Antimycotic 1 × (Thermo Fisher Scientific, Cat. No. 15240062) and 200 μg/ml of Geneticin G418 sulfate (Thermo Fisher Scientific, Cat. No. 10131035). Upon reaching a confluency of approximately 80%, cells were transfected with the plasmids containing ArLQR1 or ArLQR2 receptor cDNAs and a plasmid containing the promiscuous Gα-16 protein that can couple a wide range of GPCRs to the phospholipase C pathway. The transfection was achieved using 5 µg of each plasmid and 8 μl of the transfection reagent Lipofectamine 3000 following the manufacturer instructions (Thermo Fisher Scientific; Cat. No. L3000008). Two days post-transfection, the culture medium was removed and the cells detached by the addition of 2 ml of 1 × PBS buffer pH 7.4 (Thermo Fisher Scientific; Cat. No. 10010023) supplemented with UltraPure EDTA 0.5 M pH 8.0 (Thermo Fisher Scientific; Cat. No. 15575020) to a final concentration of 5 mM EDTA. […] Luminescence levels were recorded over a 35-second period using a FLUOstar Omega Plate Reader (BMG LABTECH; FLUOstar Omega Series multi-mode microplate reader). […]

ArLQR2 = test: ArLQ/neuropeptide activation of ArLQR2, bioluminescence in CHO-ArLQR2 cells; type: cell-based, Asterias rubens; details: ArLQ 1 × 10^−4 to 1 × 10^−14 M, other neuropeptides 1 × 10^−4 to 1 × 10^−13 M
Source text: as §2, §3

GRL106 = details: orphan G-protein coupled receptor; cited from earlier work
Source text: as §1

auricle preparations = details: Lymnaea stagnalis; cited from earlier work
Source text: as §1

tube foot preparations = details: A. rubens; cited from earlier work
Source text: Figure 6 ArLQ causes relaxation of in vitro preparations of tube feet from A. rubens. […] (B). […] Tube foot preparations were obtained by dissecting from starfish arms a small square-shaped piece of ambulacral body wall containing a single tube foot stem and its associated ampulla. Co ...

[2] = test system: cardiac stomach preparations; details: "all three of these preparations"; cited from earlier work
Method: Informed by findings from analysis of the expression of ArLQP in A. rubens (see results), synthetic ArLQ (custom synthesized by PPR Ltd, Fareham, UK) was tested on tube foot and cardiac stomach preparations from A. rubens. […] Tube foot preparations were obtained by dissecting from starfish arms a small square-shaped piece of ambulacral body wall containing a single tube foot stem and its associated ampulla. Co ...

heart ventricle = details: Achatina fulica; cited from earlier work
Source text: as §1

[3] = test system: neurons and muscles involved in feeding behaviour; details: Achatina fulica; cited from earlier work
Source text: as §1

Substance: WRPGRF-NH2 [luqin-type peptide of the annelid Platynereis dumerilii]
- receptor identified for the peptide (P. dumerilii) [1]: has been identified in the annelid Platynereis dumerilii

Substance: GGGVPHVFQSGGIF-NH2 [ArTK2, tachykinin-like peptide from A. rubens]
- activation of ArLQR1 (in words) (ArLQR1): none of them caused activation of the receptors
- activation of ArLQR1 (in words) (ArLQR1; listed as ArTKL): do not activate the receptors
- activation of ArLQR2 (in words) (ArLQR2): none of them caused activation of the receptors
- activation of ArLQR2 (in words) (ArLQR2; listed as ArTKL): do not activate the receptors

Substance: TPHWRPQGRF-NH2 [LyCEP, luqin-type peptide (…amide) discovered in the pond snail Lymnaea stagnalis]
- receptor identified for the peptide (GRL106) (GRL106): identified as the receptor for this peptide
- effect on beating frequency of auricle preparations (auricle preparations): increases the beating frequency of auricle preparations

Substance: SGPYSFNSGLTF-NH2 [S2]
- activation of ArLQR1 (in words) (ArLQR1): do not activate the receptors
- activation of ArLQR1 (in words) (ArLQR1; listed as SALMFamide-2): none of them caused activation of the receptors
- activation of ArLQR2 (in words) (ArLQR2): do not activate the receptors
- activation of ArLQR2 (in words) (ArLQR2; listed as SALMFamide-2): none of them caused activation of the receptors
- relaxation of tube foot preparations (earlier studies) (tube foot preparations): known tube foot relaxant; also recorded: causes relaxation of tube foot preparations; also recorded: relaxant of all three of these preparations
- relaxant effect on cardiac stomach and other preparations (earlier studies) [2]: relaxant of all three of these preparations

Substance: pQDRSKAMQAERTGQLRRLNPRF-NH2 [ArNPY, Neuropeptide Y-type peptide from A. rubens]
- activation of ArLQR1 (in words) (ArLQR1): do not activate the receptors; also recorded: none of them caused activation of the receptors
- activation of ArLQR2 (in words) (ArLQR2): do not activate the receptors; also recorded: none of them caused activation of the receptors

Substance: SGQWRPQGRF-NH2 [ACEP-1, homolog of luqin (…amide) discovered in the snail Achatina fulica]
- effect on beat of the heart ventricle (heart ventricle): potentiating the beat of the heart ventricle
- effect on neurons and muscles involved in feeding behaviour [3]: excitatory effects on neurons and muscles involved in feeding behaviour
